Assay results taken from patent US4518712A, “Piperazine derivative and analgesic composition containing the same” (priority 1980, dated 1985).
Structures can show the parent of a compound that is named as a salt.

How the values were obtained:
dd strain male mice [1] = test: Analgesic activity test: acetic acid-induced stretching method; format: in vivo; settings: Mus musculus, oral, 30 min before 0.6% acetic acid i.p., 95% confidence limits in parentheses on the next line
Method: (§1) The results of analgesic activity test and acute toxicity test performed on the compounds of this invention and aminopyrin as control are as described below.
Groups of each 10 dd strain male mice (about 18 g in body weight) were used for the test. Each mouse was orally administered with the drug being tested. Thirty minutes after the administration, 0.1 ml/10 g of a 0.6% acetic acid solution was intraperitoneously injected. […] The percentage effectiveness was determined by the formula [formula] From the effectiveness data, the median effective dose (ED50) and its 95% confidence limits were calculated by the method of Litchfield-Wilcoxon.

dd strain male mice [2] = test: Analgesic activity test: modified Haffner method; format: in vivo; settings: 30 min before 2 mg/kg morphine hydrochloride s.c., tail clamp, 95% confidence limits in parentheses; for ED50: Mus musculus
Method: as §1
Groups of each 10 dd strain male mice (about 19 g in body weight) were used for the test. Thirty minutes after the oral administration of the drug under test, 2 mg/kg of morphine hydrochloride was subcutaneously injected. After 15 minutes, the basal part of the mouse tail was clamped with Kocher's forcepts four times at each time interval of 15 minutes to observe the pain reaction of each mouse. The percentage effectiveness was calculated by the formula [formula] From the effectiveness data, the median effective dose (ED50) and its 95% confidence limits were calculated by the method of Litchfield-Wilcoxon.

Acute toxicity test = format: in vivo, mice; settings: mouse, in vivo; oral, 72 hours of observation; dd strain male mice; 95% confidence limits in parentheses on the next line
From the text: as §1
(§2) Groups of each 4-6 dd strain male mice (about 19 g in body weight) were used for the test. […] When the median lethal dose was not obtainable, the dose (mg/kg) and the ratio (number of dead animals)/(number of test animals) were shown in Table 2.

dd strain male mice [3] = test: Acute toxicity test; format: in vivo; settings: 72 hours
From the text: as §1, §2

SMILES | ED50 (dd strain male mice [1]) [mg/kg] | ED50 (dd strain male mice [2]; po) [mg/kg] | LD50 at 72 h (Acute toxicity test) [mg/kg] | Acute toxicity, (number of dead animals)/(number of test animals) (dd strain male mice [3]; 100 mg/kg (so in the source) oral) | Acute toxicity, (number of dead animals)/(number of test animals) (dd strain male mice [3]; 250 mg/kg oral) | Acute toxicity, (number of dead animals)/(number of test animals) (dd strain male mice [3]; 500 mg/kg oral) | Acute toxicity, (number of dead animals)/(number of test animals) (dd strain male mice [3]; 1000 mg/kg oral) | Analgesic activity, ED50, Haffner method (dd strain male mice [2]; oral) [mg/kg] | ED50 (dd strain male mice [2]; oral) [mg/kg]
Cc1c(N(C)C)c(=O)n(-c2ccccc2)n1C [Aminopyrin, aminopyrin, reference compound] | 63 | 65 | 750 | – | – | – | – | – | –
Fc1ccccc1N1CCN(CC2CC2)CC1 [Compound 1] | 12.6 | 11 | – | 6/6 | 2/6 | 3/6 | – | – | –
Cl.Cl.Fc1ccc(N2CCN(CC3CC3)CC2)cc1 [Compound 2, 1-(cyclopropylmethyl)-4-(4-fluorophenyl)piperazine dihydrochloride] | 9.4 | 13.2 | – | – | 1/6 | 5/6 | 6/6 | – | –
Clc1cccc(N2CCN(CC3CC3)CC2)c1 [Compound 3] | – | 13.8 | – | – | 0/6 | 2/6 | 6/6 | – | –
Clc1ccc(N2CCN(CC3CC3)CC2)cc1 [Compound 4] | 17.9 | 6.3 | – | – | 0/6 | 5/6 | 6/6 | – | –
Clc1ccc(N2CCN(CC3CC3)CC2)cc1Cl [Compound 5] | 17.2 | 7.2 | – | – | 0/6 | 2/6 | 6/6 | – | –
Cl.Cl.FC(F)(F)c1cccc(N2CCN(CC3CC3)CC2)c1 [Compound 6, 1-(cyclopropylmethyl)-4-(3-trifluoromethylphenyl)piperazine dihydrochloride] | 2.8 | 3.7 | – | – | 0/6 | 4/6 | 6/6 | – | –
FC(F)(F)c1cccc(N2CCN(CC3CC3)CC2)c1 [Compound 7] | – | 5.5 | – | – | 0/6 | 2/6 | 6/6 | – | –
FC(F)(F)c1cccc(N2CCN(CC3CC3)CC2)c1 [Compound 9] | – | – | – | – | 0/6 | 3/6 | 6/6 | 4.9 | –
FC(F)(F)c1cccc(N2CCN(CC3CC3)CC2)c1.O=C(O)CC(O)(CC(=O)O)C(=O)O [Compound 10, 1-(Cyclopropylmethyl)-4-(3-trifluoromethylphenyl)piperazine citrate] | 8.7 | – | – | – | 0/6 | 2/6 | 6/6 | – | 2.5
FC(F)(F)c1cc(N2CCN(CC3CC3)CC2)ccc1Cl [Compound 11] | 20.2 | 5.8 | – | – | 0/6 | 5/6 | 6/6 | – | –
CC(C)N1CCN(c2cccc(C(F)(F)F)c2)CC1 [Compound 12, 1-(3-trifluoromethyl)-4-isopropylpiperazine dihydrochloride] | 4.2 | 4.9 | – | – | 0/6 | 6/6 | 6/6 | – | –
C=CCN1CCN(c2cccc(C(F)(F)F)c2)CC1.Cl.Cl [Compound 14, 1-Allyl-4-(3-trifluoromethylphenyl)piperazine dihydrochloride] | 13.6 | 7 | – | – | 0/6 | 4/6 | 6/6 | – | –
